These results are taken from article PMC4247201 (Cancer research, 2014).

Where two headings read alike, the source gives them in different places. Some results are limits rather than exact numbers.

In data set [1] the test system is SJSA-1 osteosarcoma cell line. Nature of the data set: qRT-PCR of p53 target gene mRNA in SJSA-1 cells. It is filed as cell-based. As to conditions: for effect on mRNA levels of Bax and Noxa: qRT-PCR. For orientation: In qPCR the cycle at which signal appears reflects the starting amount.
Another data set has as its system SJSA-1. The data set is described as follows: WST cell growth inhibition, SJSA-1. Type of data set: cell-based.
The test system of a further data set is RS4;11. Nature of the data set: WST cell growth inhibition, RS4. It is filed as cell-based.
A further data set concerns LANCaP. Nature of the data set: WST cell growth inhibition, LANCaP. Type of data set: cell-based.
The subject of a further data set is HCT-116. Nature of the data set: WST cell growth inhibition, HCT-116. Type of data set: cell-based.
The test system of another data set is HCT-116 (p53−/−). The data set is described as follows: WST cell growth inhibition, HCT-116. It is filed as cell-based.
The target of another data set is human MDM2 protein (Homo sapiens, UniProt Q00987). Nature of the data set: fluorescence-polarization competitive binding assay, MDM2 1–118.
The next data set deals with MDM2 18–118 protein (Homo sapiens, UniProt Q00987). The data set is described as follows: FP binding assay, truncated MDM2 18–118. Particulars: MDM2 18–118 vs 1–118.
In a further data set the target is MDM2 25–118 protein (Homo sapiens, UniProt Q00987). The data set is described as follows: FP binding assay, truncated MDM2 25–118. Particulars: MDM2 25–118 vs 1–118.
The subject of a further data set is MDMx. Nature of the data set: Biolayer Interferometry binding to MDMx. Particulars: at 10 μM. On the technique in general: BLI is a label-free optical method that tracks binding on a fibre tip over time.
A further data set has as its system Bcl-2. Nature of the data set: binding to Bcl-2. Particulars: at 10 μM.
The test system of the next data set is Bcl-xL. Nature of the data set: binding to Bcl-xL. Particulars: at 10 μM.
The next data set has as its system Mcl-1. The data set is described as follows: binding to Mcl-1. As to conditions: at 10 μM.
A further data set has as its system β-catenin. Nature of the data set: binding to β-catenin. As to conditions: at 10 μM.
The nature of data set [2]: stability in cell culture media and two other solutions. It is filed as physicochemical. As to conditions: cell culture media and two other solutions in which some spiro-oxindoles isomerize.
Data set [3] is described as follows: oral pharmacokinetics in mice. Type of data set: in vivo.
Data set [4] can be described thus: oral pharmacokinetics in rats. It is filed as in vivo.
A short description of data set [5]: oral pharmacokinetics in dogs. It is filed as in vivo.
The subject of data set [6] is HCT-116 colon cancer cell line. The data set is described as follows: qRT-PCR of p53 target gene mRNA in HCT-116 cells. Type of data set: cell-based.
Data set [7] relates to SJSA-1, HCT-116, RS4;11 and LNCaP cell lines. Nature of the data set: Western blotting of p53 activation in four cell lines. It is filed as cell-based. (A western blot detects proteins with antibodies after separation by electrophoresis.)
The subject of another data set is SAOS-2. The data set is described as follows: WST cell growth inhibition, SAOS-2. It is filed as cell-based. Particulars: Homo sapiens, SAOS-2, read-out: Cell growth Inhibition (IC50, μM).
Another data set concerns PC-3. Nature of the data set: WST cell growth inhibition, PC-3. Particulars: Homo sapiens, PC-3, read-out: Cell growth Inhibition (IC50, μM). It is filed as cell-based.
A further data set relates to SW620. The data set is described as follows: WST cell growth inhibition, SW620. As to conditions: Homo sapiens, SW-620, read-out: Cell growth Inhibition (IC50, μM). Type of data set: cell-based.
Data set [8] relates to wild-type p53 cancer cell lines of diverse tumor types. The data set is described as follows: cell growth inhibition, wild-type p53 lines. It is filed as cell-based.
For data set [9], the system named is cancer cell lines with a mutated or deleted p53. The data set is described as follows: cell growth inhibition, mutated or deleted p53 lines. It is filed as cell-based. As to conditions: read-out: IC50 of cell growth inhibition.
Data set [10] concerns SJSA-1 cells with p53 knock-down. It is filed as cell-based.
Another data set deals with SJSA-1 xenograft tumors. Nature of the data set: SJSA-1 osteosarcoma xenograft efficacy. It is filed as in vivo, SCID mice. Particulars: SJSA-1 model.
For a further data set, the system named is RS4;11 xenograft tumors. Nature of the data set: RS4. As to conditions: RS4;11 model. Type of data set: in vivo, SCID mice.
For the next data set, the system named is LNCaP xenograft tumors. Nature of the data set: LNCaP prostate cancer xenograft efficacy. It is filed as in vivo, SCID mice. Particulars: LNCaP model.
A further data set concerns HCT-116 xenograft tumors. The data set is described as follows: HCT-116 colon cancer xenograft efficacy. Particulars: HCT-116 model. It is filed as in vivo, SCID mice.
In a further data set the test system is SJSA-1 tumor tissue. Nature of the data set: pharmacodynamics, qRT-PCR in SJSA-1 tumor tissue. As to conditions: single oral dose. It is filed as in vivo, mice.
Data set [11] deals with HCT-116 xenograft tumor tissue. The data set is described as follows: pharmacodynamics, qRT-PCR in HCT-116 tumor tissue. As to conditions: single oral dose, even at 200 mg/kg. Type of data set: in vivo, mice.
Data set [12] concerns LNCaP prostate cancer cell line. Nature of the data set: flow cytometry cell cycle and apoptosis, LNCaP. Type of data set: cell-based.
Data set [13] relates to HCT-116 colon cancer cell line. The data set is described as follows: flow cytometry cell cycle and apoptosis, HCT-116. Type of data set: cell-based.
For data set [14] the following is noted: mouse, in vivo.
A short description of data set [15]: tolerability in efficacy experiments. Particulars: mice, all dose-scheduled tests of the efficacy experiments.
Where [16] appears, read: read-out: Cell growth Inhibition (IC50), SJSA-1, p53 Wild Type.
The mark [17] stands for this setting: read-out: Cell growth Inhibition (IC50), RS4;11, p53 Wild Type.
The mark [18] stands for this setting: read-out: Cell growth Inhibition (IC50), LANCaP, p53 Wild Type.
Setting [19] is: read-out: Cell growth Inhibition (IC50), HCT-116, p53 Wild Type.
Setting [20] is: Homo sapiens, HCT-116, read-out: Cell growth Inhibition (IC50, μM).

As usually defined, the IC50 is the point on the concentration scale where inhibition reaches its midpoint. Take `CC(C)(C)C[C@H]1N[C@@H](C(=O)NCC[C@H](O)CO)[C@H](c2cccc(Cl)c2)[C@@]12C(=O)Nc1cc(Cl)c(F)cc12.Cl` [MI-219]: in data set [1] (SJSA-1 cells), the “effect on mRNA levels of Bax and Noxa” value is given as “no significant effect”. Also, the IC50 was 1.4 ± 0.2 µM with SJSA-1 (setting [16]); 1 ± 0.2 µM with RS4;11 (setting [17]); 1.1 ± 0.1 µM in the data set with LANCaP (setting [18]); 0.95 ± 0.05 µM in the data set on HCT-116 (setting [19]); > 10 µM with HCT-116 (p53−/−) (read-out: Cell growth Inhibition (IC50), HCT-116 (p53−/−), p53 Deletion).

Consider `COc1ccc(C2=N[C@@H](c3ccc(Cl)cc3)[C@@H](c3ccc(Cl)cc3)N2C(=O)N2CCNC(=O)C2)c(OC(C)C)c1` [Nutlin-3a], for which the “effect on mRNA levels of Bax and Noxa” value in [1] (SJSA-1 cells) is reported as “no significant effect”. Further, the IC50 with SJSA-1 (setting [16]) is 1.3 ± 0.2 µM; in the data set with RS4;11 (setting [17]) it was 0.57 ± 0.13 µM; with LANCaP (setting [18]) it was 1.2 ± 0.4 µM; in the data set with HCT-116 (setting [19]) it was 0.86 ± 0.11 µM.

What is called EC50 is the concentration needed to bring the measured effect to its halfway point. For the molecule `CC(C)(C)C[C@@H]1N[C@@H](C(=O)N[C@H]2CC[C@H](O)CC2)[C@H](c2cccc(Cl)c2F)[C@]12C(=O)Nc1cc(Cl)ccc12` [SAR405838], the “times more potent than MI-219 in MDM2 binding” value on human MDM2 protein (comparator MI-219) is > 10 times. Also, the “times more potent than nutlin-3a in MDM2 binding” value at human MDM2 protein (comparator nutlin-3a) is > 50 times. For the same molecule, on human MDM2 protein (comparator p53 peptide), the “times more potent than the p53 peptide in MDM2 binding” value is given as > 1,000 times. Moreover, the results for the “times weaker than with the MDM2 1–118 protein” value on MDM2 18–118 protein and at MDM2 25–118 protein were 10 times and 25 times, respectively. Moreover, in the data set on MDMx, the “binding to MDMx” value is “no appreciable binding”. The “binding to Bcl-2” value with Bcl-2 is “no appreciable binding”. Further, in the data set with Bcl-xL, the “binding to Bcl-xL” value is “no appreciable binding”. Besides, the “binding to Mcl-1” value in the data set on Mcl-1 is recorded as “no appreciable binding”. Also, the “binding to β-catenin” value in the data set on β-catenin is “no appreciable binding”. In data set [2], the stability in solution entry was “stable”. In addition, the “oral pharmacokinetics (PK)” value in data set [3], in data set [4] and in data set [5] was “good” throughout. The EC50 in [1] (Homo sapiens, SJSA-1, read-out: EC50 of up-regulation of MDM2, p21 and PUMA mRNA) was 300 to 600 nM; in data set [6] (Homo sapiens, HCT-116, read-out: EC50 of increase of MDM2 and p21 mRNA), 700 nM. In addition, the “effect on p53 mRNA” value in data set [1] (SJSA-1 cells) was “no effect”; in [6] (HCT-116 cells), “no increase”. In addition, the “times more potent than MI-219 and nutlin-3a in induction of p21 and MDM2 transcription” value in data set [1] (SJSA-1 cells) and in [6] (HCT-116 cells) was 5–10 times each time. In data set [1] (SJSA-1 cells, at 1 μM), the “induction of PUMA mRNA” value was 19 fold. Moreover, the “effect on mRNA levels of Bax and Noxa” value in [1] (SJSA-1 cells) is given as “no significant effect”. In addition, the “increase of PUMA mRNA” value in data set [6] (HCT-116 cells, at 1 and 3 μM) is given as ~ 3 fold; in the data set with SJSA-1 tumor tissue it was > 40 fold. Moreover, the “times more potent than MI-219 in activation of p53” value in data set [7] is recorded as > 10 times. Further, the IC50 in the data set on SJSA-1 (Homo sapiens, SJSA-1, read-out: Cell growth Inhibition (IC50, μM)) is 0.092 ± 0.019 µM; in the data set on RS4;11 (Homo sapiens, RS4-11, read-out: Cell growth Inhibition (IC50, μM)), 0.089 ± 0.027 µM; with LANCaP (read-out: Cell growth Inhibition (IC50, μM)) it was 0.27 ± 0.03 µM; in the data set on HCT-116 (setting [20]), 0.2 ± 0.04 µM; with HCT-116 (p53−/−) (setting [20]) it was > 20 µM; in the data set on SAOS-2 it was > 10 µM. Also, the IC50 in the data set with PC-3 was > 10 µM; in the data set on SW620, > 10 µM; in data set [9], ≥ 10000 nM. Further, the “times more potent than MI-219 and nutlin-3a in inhibition of cell growth” value in [8] is 5–10 times. Moreover, in data set [10], the “reduction of potency in cell growth inhibition by p53 knock-down” value is > 20 times. The antitumor activity result is “no significant activity” in the data set with SJSA-1 xenograft tumors (10 mg/kg daily oral for 2 weeks); “partial tumor regression” with SJSA-1 xenograft tumors (30 mg/kg daily oral for 2 weeks); “rapid, complete and persistent tumor regression” with SJSA-1 xenograft tumors (100 mg/kg daily oral for 2 weeks); “effectively inhibits tumor growth” in the data set with SJSA-1 xenograft tumors (single 100 mg/kg oral dose); “partial tumor regression” with RS4;11 xenograft tumors (50 mg/kg daily dosing); “complete tumor regression” in the data set with RS4;11 xenograft tumors (100 mg/kg daily dosing). Further, the antitumor activity result is reported as “complete tumor regression” in the data set on RS4;11 xenograft tumors (200 mg/kg daily dosing), “completely inhibits tumor growth” in the data set with LNCaP xenograft tumors (100 mg/kg daily for 4 weeks) and “completely inhibits tumor growth” with HCT-116 xenograft tumors (200 mg/kg daily dosing). Further, in the data set on SJSA-1 xenograft tumors (100 mg/kg daily oral, after four doses), the “shrinkage of average tumor volume” value was > 90%. Moreover, the tumor free mice is 8 mice in the data set on SJSA-1 xenograft tumors (100 mg/kg daily, day 55, 31 days after the last dose, of 8 mice) and 8 mice in the data set on RS4;11 xenograft tumors (200 mg/kg, day 71, 25 days after the last dose, of 8 mice). The molecule further displayed a tumor free animals in the data set on SJSA-1 xenograft tumors (100 mg/kg daily, day 73, 2 months after the last dose, 5 out of 8) of 63%. Besides, the “mice with complete tumor regression” value with SJSA-1 xenograft tumors (single oral dose of 200 mg/kg) is on record as 100%. The “tumor growth inhibition over the vehicle control” value was 70% with LNCaP xenograft tumors (50 mg/kg daily for 4 weeks) and > 80% in the data set on HCT-116 xenograft tumors (100 mg/kg daily dosing, end of the treatment). This molecule had a tumor regression in the data set with LNCaP xenograft tumors (200 mg/kg daily for 4 weeks) of 80%. In addition, the “maximum induction of PUMA mRNA over the control” value in data set [11] was 3 fold. The “concentration that effectively inhibits cell cycle progression” value in data set [12] (24 h treatment) is ≥ 0.3 µM; in data set [13] (HCT-116, 24 h treatment), ≥ 0.3 µM. Besides, the apoptosis induction entry was “modest or minimal effect” in data set [12] (even at 10 μM) and “modest or minimal effect” in data set [13] (HCT-116, even at 10 μM). Besides, in data set [14], the signs of toxicity result is on record as “no signs of toxicity”. In [15], the weight loss result is recorded as “less than 10%”.
